Source: paper PMC9906736, “Sodium-Dependent Neutral Amino Acid Transporter 2 Can Serve as a Tertiary Carrier for L-Type Amino Acid Transporter 1-Utilizing Prodrugs” (Molecular Pharmaceutics, 2023)
Entries after “also recorded” stand apart in the source; their conditions may differ.

What was measured:
MCF-7 cells = test: Concentration-dependent cellular uptake into MCF-7 cells at various pH, with and without Na+; type: cell-based, human; conditions: for cellular uptake at pH 5.5 compared to pH 7.4 / cellular uptake at pH 8.5 compared to pH 7.4 / cellular uptake at pH 8.5 in the absence of Na+: 1–200 μM, 30 min; for cellular uptake at pH 8.5 in the absence of Na+: compared to presence of Na+; for Km: pH 8.5, read-out: Km(uM)@pH8.5
Description: MCF-7 human breast adenocarcinoma cells (HTB-22) were purchased from the American Type Culture Collection (ATCC, Manassas, VA, USA). MCF-7 cells were cultured in Dulbecco’s modified Eagle’s medium supplemented with L-glutamine (2.0 mM), heat-inactivated fetal bovine serum (10%), and penicillin (50 U/mL)–streptomycin (50 μg/mL) solution. MCF-7 cells (passages 8–25) were seeded at the density of 1 × 10^5 cells/well onto 24-well plates. The cells were used for the uptake experiments 1 day after seeding. All the studies were carried out as three biological replicates from the same cell passage.
For the following experiments, the MCF-7 cells were cultured, seeded, washed with HBSS, and preincubated as described above at the desired conditions (pH 5.5, 7.4, or 8.5, with and without Na^+). […] Subsequently, the cells were washed three times with ice-cold HBSS and lysed with 500 μL of 0.1 M NaOH (60 min). […] The cell-associated concentrations of each compound normalized to protein concentration were calculated from the standard curve that was prepared by spiking known concentrations of compounds to ACN including the selected internal standard (diclofenac to all studied compounds). The protein concentrations on each plate were determined as a mean of three samples by Bio-Rad Protein Assay based on the Bradford dye-binding method using BSA as a standard protein and measuring the absorbance (595 nm) by a multiplate reader (EnVision, PerkinElmer, Inc., Waltham, MA, USA).

SNATs [1] = test: Competitive cellular uptake in the presence of unselective SNAT ligand MeAIB in MCF-7 cells; type: cell-based, human; conditions: 100 μM compound, 100 μM MeAIB, pH 7.4 or 8.5, 30 min
Description: The competitive uptake in the presence of unselective SNAT ligand, MeAIB (100 μM),[31],[32] was carried out as described above with HBSS buffer at pH 7.4 or pH 8.5 containing 100 μM of the studied compound. The cells were preincubated with the inhibitors for 10 min, and the incubation mixture was removed before adding the studied compound and the inhibitor to the cells. The competitive uptake (30 min) with the inhibitor was then carried out as the normal uptake described above. The concentrations of studied compounds were analyzed by the LC–MS/MS method and calculated from the spiked standard curve and normalized with the protein concentrations.

LAT1 [2] = conditions: cited from earlier work; for LAT1 Properties (in words): merged cell over IC50, CLint and Kp columns; for IC50: ability to compete with natural LAT1-substrate L-Leu, read-out: IC50 (μM) of [^14C]-L-Leu Uptake
LAT1 [3] = test system: LAT1; parameters: unit not given here; conditions: CLint = Vmax/Km; cited from earlier work
[4] = brain accumulation; cited from earlier work
SNATs [5] = test: Functionality of SNATs in MCF-7 cells with [3H]-L-proline uptake; type: cell-based, human; conditions: for inhibition of the uptake of [^3H]-L-proline: MeAIB 100 μM
Description: After removal of the culture medium, MCF-7 cells were carefully washed with prewarmed HBSS (Hank’s balanced salt solution) containing 125.0 mM NaCl (or choline chloride in Na^+-free conditions), 4.8 mM KCl, 1.2 mM MgSO4, 1.2 mM KH2PO4, 1.3 mM CaCl2, 5.6 mM glucose, and 25.0 mM 4-(2-hydroxyethyl)piperazine-1-ethanesulfonic acid (HEPES) with pH adjusted to either 7.4 or 8.5 with 1 M NaOH (or KOH in sodium-free conditions). In the experiments at lower pH (4.5–6.5), 25.0 mM HEPES was replaced by 2-(N-morpholino)ethanesulfonic acid (MES), and pH was adjusted to 4.5, 5.5, and 6.5 by 1.0 M NaOH. Preincubation was done with 500 μL of prewarmed HBSS at 37 °C for 10 min before adding substrates (250 μL in HBSS) for the uptake experiments. The functionality of SNATs in MCF-7 cells was studied with a known SNAT substrate; the cells were incubated either with [^3H]-L-proline [1 μM (PerkinElmer, Waltham, MA, USA) in uptake buffer HBSS, 250 μL] at 37 °C for 1–60 min or with the uptake buffer (250 μL) consisting of 1–600 μM L-proline (containing 2 μCi [^3H]-L-proline) at 37 °C for 60 min.[38] After incubation, the uptake was stopped by adding 500 μL of ice-cold HBSS, and the cells were washed two times with ice-cold HBSS (2 × 500 μL). The cells were then lysed with 500 μL of 0.1 M NaOH (60 min), and the lysate was mixed with 3.5 mL of Emulsifier safe cocktail (Ultima Gold, PerkinElmer, Waltham, MA, USA). The radioactivity in the cells was measured by liquid scintillation counting (MicroBeta^2 counter, PerkinElmer Waltham, MA, USA). The concentrations of [^3H]-L-proline were calculated from the spiked standard curve at each pH and normalized with the protein concentrations. The SNAT-mediated uptake was confirmed by changing the pH of the uptake buffer in the absence of sodium ions and in the presence of unselective SNAT-ligand, MeAIB (100 μM).[31],[32]

| SMILES | cellular uptake at pH 5.5 compared to pH 7.4 (MCF-7 cells) | cellular uptake at pH 8.5 compared to pH 7.4 (MCF-7 cells) | cellular uptake in the presence of MeAIB (SNATs [1]) | cellular uptake at pH 8.5 in the absence of Na+ (MCF-7 cells) | Km (MCF-7 cells) [µM] | IC50 (LAT1 [2]) [µM] | Intrinsic Clearance (CLint) of LAT1-mediated uptake (LAT1 [3]) | in vivo Kp values (AUCbrain/ AUCplasma) [4] | other results |
| --- | --- | --- | --- | --- | --- | --- | --- | --- | --- |
| CCCN(CCC)S(=O)(=O)c1ccc(C(=O)O)cc1 [PRB, probenecid, reference compound] | increased | decreased | did not affect |  |  |  |  |  | LAT1 Properties (in words) (LAT1 [2]): Not an LAT1 substrate |
| CC(C(=O)Nc1ccc(C[C@H](N)C(=O)O)cc1)c1cccc(C(=O)c2ccccc2)c1 (some centres unmarked) [Compound 3] | higher | higher | decreased | increased | 131 | 51.16 ± 0.1 | 8.3 | 0.050 |  |
| COc1cc(/C=C/C(=O)NCc2cccc(C[C@H](N)C(=O)O)c2)ccc1O [Compound 8] |  | much higher | decreased | sodium-sensitive | 225 | 14.2 ± 0.91 | 0.3 | 0.052 |  |
| CNC(C)(C)C(=O)O [MeAIB, α-(methylamino)isobutyric acid] |  |  |  |  |  |  |  |  | inhibition of the uptake of [^3H]-L-proline (SNATs [5]; [^3H]-L-proline 25 μM): negligible; inhibition of the uptake of [^3H]-L-proline (SNATs [5]; [^3H]-L-proline 50 and 100 μM): able to inhibit; LAT1 Properties (in words) (LAT1 [2]): Not an LAT1 substrate |
| N[C@@H](Cc1cc(I)c(Oc2cc(I)c(O)c(I)c2)c(I)c1)C(=O)O [T4, thyroxin, reference compound] | increased | decreased | decreased |  |  | 18 ± 1.41 | 5.5 |  |  |
| N[C@@H](Cc1c[nH]c2ccccc12)C(=O)O [L-Trp, reference compound] | did not affect | did not affect | did not affect | did not affect |  | 50.5 ± 2.63 | 146 |  |  |
| CC(C(=O)NCCCC[C@H](N)C(=O)O)c1cccc(C(=O)c2ccccc2)c1 (some centres unmarked) [Compound 5] |  | much higher | decreased | sodium-sensitive | 102 | 82.7 ± 1.45 | 1.3 | 0.022 |  |
| CC(C(=O)NCc1cccc(C[C@H](N)C(=O)O)c1)c1cccc(C(=O)c2ccccc2)c1 (some centres unmarked) [Compound 4] |  | much higher | decreased | sodium-sensitive | 40 | 0.12 ± 0.01 | 4.5 | 0.017 |  |
| N[C@@H](Cc1cccc(C(=O)OCc2ccc(-c3ccc(-c4ccc5c(c4)COC5=O)s3)cc2)c1)C(=O)O [Compound 1] |  | much higher | decreased | decreased; also recorded: sodium-sensitive | 412 | 1.54 ± 0.05 | 47.1 | 0.043 | Vmax of cellular uptake (MCF-7 cells; pH 5.5): 29 nmol/min/mg protein; cellular uptake, times higher at pH 5.5 compared to pH 7.4 (MCF-7 cells; ratio of Vmax): 3.9 times; cellular uptake, times higher at pH 8.5 compared to pH 7.4 (MCF-7 cells; ratio of Vmax): 9.3 times |
| CC(C(=O)Nc1cccc(C[C@H](N)C(=O)O)c1)c1cccc(C(=O)c2ccccc2)c1 (some centres unmarked) [Compound 2] | did not affect | did not affect | did not affect | did not affect | 291 | 0.54 ± 0.05 | 11.2 | 0.045 |  |
| O=C(O)[C@@H]1CCCN1 [[^3H]-L-proline] |  |  |  |  |  |  |  |  | Km (SNATs [5]; MCF-7 cells, 10–600 μM, 60 min): 1470 ± 257 µM; Vmax of [^3H]-L-proline uptake (SNATs [5]; MCF-7 cells, 10–600 μM, 60 min): 1.13 ± 0.15 nmol/min/mg protein; pH dependency of uptake (SNATs [5]; MCF-7 cells, pH 4.5–8.5 in the presence of Na+): significant pH dependency; uptake in the absence of sodium (SNATs [5]; MCF-7 cells, pH 7.4): significantly reduced |
| CC(C(=O)NCC[C@H](N)C(=O)O)c1cccc(C(=O)c2ccccc2)c1 (some centres unmarked) [Compound 6] |  | decreased | decreased |  | 422 | 89.1 ± 4.19 |  | 0.317 |  |
| COc1cc(/C=C/C(=O)Nc2cccc(C[C@H](N)C(=O)O)c2)ccc1O [Compound 7] |  | much higher | decreased | sodium-sensitive | 184 | 1.1 ± 0.08 |  | 0.082 |  |
